Structures can show the parent of a compound that is named as a salt.
Target: human recombinant ATX (Homo sapiens (Human), UniProt Q13822)
Assay: Autotaxin (ATX) activity Quanta Red assay
Format: biochemical
Settings: 15 μM Rac-1-Palmitoyl-glycero-3-phosphocholine, 2 hours room temperature, determined in duplicate
Method: The ATX enzyme assay (Quanta Red assay) described in accompanying Example section may be used to measure the pharmacological effects of the compounds of the present invention.
Autotaxin (ATX) Activity Quanta Red Assay
Measuring ATX activity using an enzyme coupled Quanta Red assay (Thermo Scientific—Pierce Protein Research Products, Product #15159) was determined as follows. 8 μL human recombinant ATX (final concentration 0.8 μg/mL) in 1× Assay buffer containing 50 mM Tris-HCl (pH 8.0), 5 mM CaCl2 was added to an opaque black flat-bottom 384-well plate (Corning, #3575) containing 2 μL test compound in 40% DMSO (4% final DMSO concentration). 10 μL of Quanta Red, Horseradish peroxidase (HRP), Choline Oxidase (CO), Rac-1-Palmitoyl-glycero-3-phosphocholine solution (final concentration 1:250 for Quanta Red, 0.5units/ml HRP, 0.5units/ml CO, 15 μM Rac-1-Palmitoyl-glycero-3-phosphocholine) in 1× assay buffer (as described previously) was added to each well to start the reaction and the plate was incubated at room temperature for 2 hours. The reaction was stopped after 2 hours with a 20 μL addition of Quanta Red Stop solution (1:20 dilution in distilled water). The above-described mixture with DMSO alone was used as a positive control whereas that with DMSO alone without ATX was taken as a negative control.
For each test compound, ten concentrations were measured covering a range of 6.1 nM to 120 μM to determine IC50 values. The top concentration was decreased to 1.2 μM when a test compound's IC50 value was evaluated in low nanomolar range. Fluorescence was determined in a BMG Labtech Pherastar plus plate reader ([…]). Data were analysed using Excel fit software. IC50 values were determined in duplicate.

Row | Compound | IC50
1 | CN1CCC(C(=O)NCc2ccc(N3CC(C(=O)Nc4nnc(CCc5ccc(Cl)cc5)s4)CC3=O)cc2)CC1 (centres unmarked) [Compound F184, 1-Methyl-piperidine-4-carboxylic acid 4-(4-{5-[2-(4-chloro-phenyl)-ethyl]-[1,3,4]thiadiazol-2-ylcarbamoyl}-2-oxo-pyrrolidin-1-yl)-benzylamide] | 45 nM
2 | O=C(Nc1cnc(CCc2ccccc2)s1)C1CC(=O)N(c2ccc(CN3CCOCC3)cc2)C1 (centres unmarked) [Compound F201, 1-[4-(morpholinomethyl)phenyl]-5-oxo-N-[2-(2-phenylethyl)thiazol-5-yl]pyrrolidine-3-carboxamide] | 1070 nM
3 | O=C(Nc1nnc(CCc2ccc(Cl)cc2)s1)[C@@H]1CC(=O)N(c2ccc(CN3CCOCC3)cc2)C1 [Compound F161, (3R)-N-[5-[2-(4-chlorophenyl)ethyl]-1,3,4-thiadiazol-2-yl]-1-[4-(morpholinomethyl)phenyl]-5-oxo-pyrrolidine-3-carboxamide] | 37 nM
4 | O=C(Nc1nnc(CCC2CCCO2)s1)[C@H]1CC(=O)N(c2ccc(CN3CCOCC3)cc2)C1 (stereo partly drawn) [Compound F186, (3S)-1-[4-(morpholinomethyl)phenyl]-5-oxo-N-[5-(2-tetrahydrofuran-2-ylethyl)-1,3,4-thiadiazol-2-yl]pyrrolidine-3-carboxamide] | 134 nM
5 | O=C(Nc1cc(CCc2ccccc2)no1)C1CC(=O)N(c2ccc(CN3CCOCC3)cc2)C1 (centres unmarked) [Compound F200, 1-[4-(morpholinomethyl)phenyl]-5-oxo-N-[3-(2-phenylethyl)isoxazol-5-yl]pyrrolidine-3-carboxamide] | 760 nM
6 | O=C(NC1CC(=O)N(c2ccc(CN3CCCCC3)cc2)C1)c1ncc(CCc2ccccc2)s1 (centres unmarked) [Compound F197, N-[5-oxo-1-[4-(1-piperidylmethyl)phenyl]pyrrolidin-3-yl]-5-(2-phenylethyl)thiazole-2-carboxamide] | 465 nM
7 | CN(CCC(C)(C)O)Cc1ccc(N2C[C@H](NC(=O)c3nnc(CCc4ccc(Cl)cc4)s3)CC2=O)cc1 [Compound F171, 5-[2-(4-chlorophenyl)ethyl]-N-[(3R)-1-[4-[[(3-hydroxy-3-methyl-butyl)-methyl-amino]methyl]phenyl]-5-oxo-pyrrolidin-3-yl]-1,3,4-thiadiazole-2-carboxamide] | 58 nM
8 | O=C(N[C@@H]1CCN(c2ccc(CN3CCOCC3)cc2)C1)c1nnc(CCc2ccc(Cl)cc2)s1 [Compound F131, 5-[2-(4-chloro-phenyl)-ethyl]-[1,3,4]thiadiazole-2-carboxylic acid [(R)-1-(4-morpholin-4-ylmethyl-phenyl)-pyrrolidin-3-yl]-amide hydrochloride] | 2 nM
9 | O=C(Nc1ccc(CCc2ccccc2)nn1)C1CC(=O)N(c2ccc(CN3CCOCC3)cc2)C1 (centres unmarked) [Compound F162, 1-[4-(morpholinomethyl)phenyl]-5-oxo-N-[6-(2-phenylethyl)pyridazin-3-yl]pyrrolidine-3-carboxamide] | 37 nM
10 | CC1(O)CCN(Cc2ccc(N3C[C@H](NC(=O)c4nnc(CCc5ccc(Cl)cc5)s4)CC3=O)cc2)CC1 [Compound F169, 5-[2-(4-chlorophenyl)ethyl]-N-[(3R)-1-[4-[(4-hydroxy-4-methyl-1-piperidyl)methyl]phenyl]-5-oxo-pyrrolidin-3-yl]-1,3,4-thiadiazole-2-carboxamide] | 22 nM
11 | O=C(Nc1nnc(CCC2CCOCC2)s1)[C@H]1CC(=O)N(c2ccc(CN3CCCCC3)cc2)C1 [Compound F190, (3S)-5-oxo-1-[4-(1-piperidylmethyl)phenyl]-N-[5-(2-tetrahydropyran-4-ylethyl)-1,3,4-thiadiazol-2-yl]pyrrolidine-3-carboxamide] | 526 nM
12 | O=C(NC1CC(=O)N(c2ccc(CN3CCCCC3)cc2)C1)c1ccc(CCc2ccccc2)nn1 (centres unmarked) [Compound F205, N-[5-oxo-1-[4-(1-piperidylmethyl)phenyl]pyrrolidin-3-yl]-6-(2-phenylethyl)pyridazine-3-carboxamide] | 7060 nM

The remaining compounds from weak to strong by IC50, led by results:

Row | IC50 | Compound
13 | 18 nM | CC(C)N(C)Cc1ccc(N2CC(C(=O)Nc3nnc(CCc4ccc(Cl)cc4)s3)CC2=O)cc1 (centres unmarked) [Compound F159, N-[5-[2-(4-chlorophenyl)ethyl]-1,3,4-thiadiazol-2-yl]-1-[4-[[isopropyl (methyl)amino]methyl]phenyl]-5-oxo-pyrrolidine-3-carboxamide]
14 | 11 nM | O=C(Nc1ccc(CCc2ccc(F)cc2)nn1)[C@H]1CC(=O)N(c2ccc(CN3CCOCC3)cc2)C1 [Compound F180, (3S)—N-[6-[2-(4-fluorophenyl)ethyl]pyridazin-3-yl]-1-[4-(morpholinomethyl)phenyl]-5-oxo-pyrrolidine-3-carboxamide hydrochloride]
15 | 9 nM | O=C(Nc1nnc(CCc2ccc(Cl)cc2)s1)C1CC(=O)N(c2ccc(CN3CCCC3)cc2)C1 (centres unmarked) [Compound F151, N-[5-[2-(4-chlorophenyl)ethyl]-1,3,4-thiadiazol-2-yl]-5-oxo-1-[4-(pyrrolidin-1-ylmethyl)phenyl] pyrrolidine-3-carboxamide]
16 | 8 nM | CC1CN(Cc2ccc(N3CC(C(=O)Nc4nnc(CCc5ccc(Cl)cc5)s4)CC3=O)cc2)C[C@H](C)O1 (stereo in doubt) [Compound F125, N-[5-[2-(4-chlorophenyl)ethyl]-1,3,4-thiadiazol-2-yl]-1-[4-[[(2S,6S)-2,6-dimethylmorpholin-4-yl]methyl]phenyl]-5-oxo-pyrrolidine-3-carboxamide]
17 | 4 nM | CC1CCN(Cc2ccc(N3CC(NC(=O)c4nnc(CCc5ccc(Cl)cc5)s4)CC3=O)cc2)CC1 (centres unmarked) [Compound F136, 5-[2-(4-chlorophenyl)ethyl]-N-[1-[4-[(4-methyl-1-piperidyl)methyl]phenyl]-5-oxo-pyrrolidin-3-yl]-1,3,4-thiadiazole-2-carboxamide]
18 | 3 nM | O=C(N[C@H]1CC(=O)N(c2ccc(CN3CCCCC3)cc2)C1)c1cc(CCc2ccc(Cl)cc2)on1 [Compound F145, 5-[2-(4-chlorophenyl)ethyl]-N-[(3S)-5-oxo-1-[4-(1-piperidylmethyl)phenyl]pyrrolidin-3-yl]isoxazole-3-carboxamide]
19 | 3 nM | O=C(Nc1nnc(SCc2ccc(F)cc2)s1)C1CC(=O)N(c2ccc(CN3CCOCC3)cc2)C1 (centres unmarked) [Compound F154, 1-(4-morpholin-4-ylmethyl-phenyl)-5-oxo-pyrrolidine-3-carboxylic acid [5-(4-fluoro-benzylsulfanyl)-[1,3,4]thiadiazol-2-yl]-amide]
20 | 2 nM | O=C(Nc1nnc(CCc2ccc(Cl)cc2)s1)C1CC(=O)N(c2ccc(CN3CCCCC3)cc2)C1 (centres unmarked) [Compound F99, N-[5-[2-(4-chlorophenyl)ethyl]-1,3,4-thiadiazol-2-yl]-5-oxo-1-[4-(1-piperidylmethyl)phenyl] pyrrolidine-3-carboxamide]
21 | 2 nM | O=C(Nc1nnc(CCc2ccc(C(F)(F)F)cc2)s1)[C@H]1CC(=O)N(c2ccc(CN3CCOCC3)cc2)C1 [Compound F97, (3S)-1-[4-(morpholinomethyl)phenyl]-5-oxo-N-[5-[2-[4-(trifluoromethyl)phenyl]ethyl]-1,3,4-thiadiazol-2-yl]pyrrolidine-3-carboxamide]
22 | 2 nM | CCN(CC)Cc1ccc(N2CC(C(=O)Nc3nnc(CCc4ccc(Cl)cc4)s3)CC2=O)cc1 (centres unmarked) [Compound F98, N-[5-[2-(4-chlorophenyl)ethyl]-1,3,4-thiadiazol-2-yl]-1-[4-(diethylaminomethyl)phenyl]-5-oxo-pyrrolidine-3-carboxamide]
23 | 1 nM | COCCN(C)Cc1ccc(N2C[C@@H](C(=O)Nc3nnc(CCc4ccc(Cl)cc4)s3)CC2=O)cc1 [Compound F94, (3S)-N-[5-[2-(4-chlorophenyl)ethyl]-1,3,4-thiadiazol-2-yl]-1-[4-[[2-methoxyethyl(methyl)amino]methyl]phenyl]-5-oxo-pyrrolidine-3-carboxamide]
24 | 1 nM | CN(Cc1ccc(N2C[C@@H](C(=O)Nc3nnc(CCc4ccc(Cl)cc4)s3)CC2=O)cc1)C1CCOC1 (stereo partly drawn) [Compound F87, (3S)-N-[5-[2-(4-chlorophenyl)ethyl]-1,3,4-thiadiazol-2-yl]-1-[4-[[methyl(tetrahydrofuran-3-yl)amino]methyl]phenyl]-5-oxo-pyrrolidine-3-carboxamide]
25 | 1 nM | O=C(Nc1cc(CCc2ccc(Cl)cc2)on1)C1CC(=O)N(c2ccc(CN3CCCCC3)cc2)C1 (stereo in doubt) [Compound F146, (3S)-N-[5-[2-(4-chlorophenyyl)ethyl]isoxazol-3-yl]-5-oxo-1-[4-(1-piperidylmethyl)phenyl] pyrrolidine-3-carboxamide]
26 | 1 nM | O=C(Nc1nnc(CCc2ccc(Cl)cc2)s1)[C@H]1CC(=O)N(c2ccc(CN3CCC4(COC4)C3)cc2)C1 [Compound F212, (3S)-N-[5-[2-(4-chlorophenyl)ethyl]-1,3,4-thiadiazol-2-yl]-1-[4-(2-oxa-7-azaspiro[3.4]octan-7-ylmethyl)phenyl]-5-oxo-pyrrolidine-3-carboxamide]

— US10138230B2, “Autotaxin inhibitors” (CANCER RESEARCH TECHNOLOGY LIMITED, priority 2015, dated 2018)
